Results taken from ChEMBL document CHEMBL1145907, “Requirements for specific binding of low affinity inhibitor fragments to the SH2 domain of (pp60)Src are identical to those for high affinity binding of full length inhibitors” (J Med Chem, 2003).

target: Proto-oncogene tyrosine-protein kinase Src (Homo sapiens, UniProt P12931); test: Inhibitory activity against SH2 domain of human p60 c-Src tyrosine kinase using surface plasmon resonance (SPR) assay.
Sequence (P12931 2-536 limits assumed): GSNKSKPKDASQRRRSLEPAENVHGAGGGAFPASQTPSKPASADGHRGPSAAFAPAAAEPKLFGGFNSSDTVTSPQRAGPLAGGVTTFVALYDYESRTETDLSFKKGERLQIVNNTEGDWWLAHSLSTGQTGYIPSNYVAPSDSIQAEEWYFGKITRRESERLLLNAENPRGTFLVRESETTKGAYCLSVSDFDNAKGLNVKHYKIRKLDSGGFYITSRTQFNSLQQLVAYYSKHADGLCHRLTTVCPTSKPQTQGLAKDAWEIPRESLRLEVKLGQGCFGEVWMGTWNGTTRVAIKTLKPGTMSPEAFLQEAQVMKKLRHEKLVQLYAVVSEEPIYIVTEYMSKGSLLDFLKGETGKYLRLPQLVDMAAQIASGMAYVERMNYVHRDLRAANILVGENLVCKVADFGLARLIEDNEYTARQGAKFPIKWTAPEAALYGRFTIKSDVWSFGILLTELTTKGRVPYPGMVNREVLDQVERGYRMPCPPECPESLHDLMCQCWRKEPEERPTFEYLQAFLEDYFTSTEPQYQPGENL

| SMILES | IC50 [mM] |
| --- | --- |
| O=[N+]([O-])c1cc2c(cc1C(O)P(=O)(O)O)OCO2 (stereo not drawn) | 0.3 |
| O=C(O)CC(O)(CC(=O)O)C(=O)O [CITRIC ACID] | > 40 |
| O=P(O)(O)O [PHOSPHORIC ACID] | > 40 |
